Laboratory results published in PMC3853740, “Chlorinated Didemnins from the Tunicate Trididemnum solidum” (Marine Drugs, 2013).
Read-outs that look alike come from different tables or passages of the source. *1 amine or outer side, *2 acyl side, *3 side chain or, on linkers, in order; H or OH if unused. Where a SMILES comes first, the peptide text is derived from it. Bridges are numbered along the chain shown (N, C = ends). [ ]: non-standard residue; d: D form. X1 = CC[C@H](C)[C@@H](N[*:1])[C@@H](O)CC(=O)O[C@H](C(=O)[C@H](C)C(=O)[*:2])C(C)C; X2 = CC(C(=O)C(OC(=O)CC(O)C(N[*:1])C(C)C)C(C)C)C(=O)[*:2]; X3 = COc1ccc(CC(C(=O)[*:2])N(C)[*:1])cc1Cl; NMeY = CN[C@@H](Cc1ccc(O)cc1)C(=O)O; dNMeL = CN[C@H](CC(C)C)C(=O)O; NMeL = CN[CH](CC(C)C)C(=O)O

Columns and labels:
[1] = target: T1, inducible nitric oxide synthase (iNOS) (Mus musculus, UniProt P29477); assay: Inhibition of iNOS activity in LPS induced macrophages (RAW264.7 cells); type: cell-based
T1 construct: endogenous in cells; host or cells: RAW264.7 macrophages, LPS induced
T1 sequence (P29477 1-1144): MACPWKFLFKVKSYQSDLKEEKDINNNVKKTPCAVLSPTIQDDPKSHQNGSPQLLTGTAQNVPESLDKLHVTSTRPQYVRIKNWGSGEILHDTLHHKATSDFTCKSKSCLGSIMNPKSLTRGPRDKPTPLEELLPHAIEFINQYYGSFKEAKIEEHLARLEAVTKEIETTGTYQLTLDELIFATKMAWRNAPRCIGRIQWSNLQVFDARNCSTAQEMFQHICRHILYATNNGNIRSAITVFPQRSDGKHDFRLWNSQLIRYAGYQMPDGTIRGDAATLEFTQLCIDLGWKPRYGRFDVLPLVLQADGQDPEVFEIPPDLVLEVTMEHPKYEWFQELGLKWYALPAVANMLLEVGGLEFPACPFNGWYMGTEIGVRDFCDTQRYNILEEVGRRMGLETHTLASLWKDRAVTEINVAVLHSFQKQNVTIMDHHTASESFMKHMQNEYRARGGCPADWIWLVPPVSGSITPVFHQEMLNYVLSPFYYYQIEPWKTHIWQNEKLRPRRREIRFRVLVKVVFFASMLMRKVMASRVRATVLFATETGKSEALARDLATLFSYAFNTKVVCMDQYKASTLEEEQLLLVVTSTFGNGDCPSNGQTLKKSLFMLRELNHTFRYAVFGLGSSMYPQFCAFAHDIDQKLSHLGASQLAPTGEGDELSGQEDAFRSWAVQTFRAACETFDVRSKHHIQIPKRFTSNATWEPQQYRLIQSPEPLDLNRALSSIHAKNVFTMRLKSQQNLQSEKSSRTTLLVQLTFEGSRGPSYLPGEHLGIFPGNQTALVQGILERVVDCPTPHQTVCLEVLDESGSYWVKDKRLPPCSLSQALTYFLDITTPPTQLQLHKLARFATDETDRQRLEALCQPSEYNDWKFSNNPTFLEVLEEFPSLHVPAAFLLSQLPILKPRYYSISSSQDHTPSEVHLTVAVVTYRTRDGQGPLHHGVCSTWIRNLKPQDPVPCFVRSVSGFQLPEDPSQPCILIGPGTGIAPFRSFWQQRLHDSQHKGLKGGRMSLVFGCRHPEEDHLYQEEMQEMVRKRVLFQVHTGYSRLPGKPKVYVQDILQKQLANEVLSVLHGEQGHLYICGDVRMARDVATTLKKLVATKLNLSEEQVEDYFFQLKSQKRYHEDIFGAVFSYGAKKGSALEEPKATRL
Procedure: (§1) The isolated compounds 1–4 were tested in a series of in vitro cell-based assays for their effects on selected targets involved in the process of inflammation and cancer. Inflammation and oxidative stress are known to be linked to the development of many disorders such as cancer, organ damage, and neurodegenerative conditions. The NF-κB family of transcription factors plays a key role in inflammation, cell cycle regulation, apoptosis, and oncogenesis by controlling gene network expression. The activation of NF-κB involves many cellular processes leading to inflammation and development of cancer. In the assay for NF-κB activity, a luciferase construct with binding sites for specificity protein (SP-1) was used as a control because this transcription factor is relatively unresponsive to inflammatory mediators such as phorbol myristate acetate (PMA). Inducible nitric oxide synthase (iNOS) plays a key role in regulation of blood pressure, the immune system, infection, and inflammation. Overproduction of nitric oxide (NO) by iNOS has been implicated in various pathological processes such as septic shock, inflammation, rheumatoid arthritis, cancer, and tissue damage. The increase in NO response caused mainly by endotoxins and proinflammatory mediators such as lipopolysaccharide (LPS) can be reduced by anti-inflammatory agents acting as iNOS inhibitors. The isolated metabolites were also evaluated for their cytotoxicity towards four human solid tumor cell lines (SK-MEL: melanoma; KB: epidermal carcinoma; BT549: breast carcinoma and SK-OV-3: ovarian carcinoma) and non-cancer kidney cells (Vero: monkey kidney fibroblasts).
(§2) Similar to the effect of doxorubicin, the compounds (1–3) were less toxic towards noncancerous cells (Vero cells) which were included for comparison. The strong anticancer activity can be partly explained due to a strong inhibition of NF-κB mediated transcription that may cause enhanced apoptosis and cell death.
(§3) Inhibition of NF-κB mediated transcription was determined in SW1353 cells by a reporter gene assay as described by Ma et al.. Inhibition of iNOS activity was determined in RAW264.7 cells as described earlier. In vitro cytotoxicity was determined against a panel of four solid tumor cell lines and compared with noncancerous kidney cells (Vero). Parthenolide and doxorubicin were used as positive controls for anti-inflammatory and cytotoxic activity, respectively.

[2] = system: nuclear factor-kappa B (NF-κB); assay: Inhibition of NF-κB mediated transcription, reporter gene assay in PMA induced SW1353 chondrocytes; type: cell-based; details: Homo sapiens, SW1353 cells
Procedure: as §1, §2, §3

SK-MEL = assay: In vitro cytotoxicity, SK-MEL melanoma; type: cell-based; details: Homo sapiens, read-out: Anti-cell proliferative activity IC50, SK-MEL
Procedure: as §1, §3

KB = assay: In vitro cytotoxicity, KB epidermal carcinoma; type: cell-based; details: Homo sapiens, read-out: Anti-cell proliferative activity IC50, KB
Procedure: as §1, §3

BT-549 = assay: In vitro cytotoxicity, BT-549 breast carcinoma; type: cell-based; details: Homo sapiens
Procedure: as §1, §3

SK-OV-3 = assay: In vitro cytotoxicity, SK-OV-3 ovarian carcinoma; type: cell-based; details: Homo sapiens
Procedure: as §1, §3

VERO = assay: In vitro cytotoxicity, Vero non-cancer kidney fibroblasts; type: cell-based, monkey; details: Primates, read-out: Anti-cell proliferative activity IC50, VERO
Procedure: as §1, §3

[3] = RAW264.7 cells, LPS induced, read-out: iNOS inhibition IC50
[4] = BT-549, read-out: Anti-cell proliferative activity IC50, BT-549
[5] = SK-OV-3, read-out: Anti-cell proliferative activity IC50, SK-OV-3

Row | Compound | IC50 [1, 3] [nM] | IC50 [2] [nM] | IC50 [1] [nM] | IC50 (SK-MEL) [nM] | IC50 (KB) [nM] | IC50 (BT-549; [4]) [nM] | IC50 (SK-OV-3; [5]) [nM] | IC50 (VERO) [nM] | IC50 (SK-MEL; melanoma) [nM] | IC50 (KB; epidermal carcinoma) [nM] | IC50 (BT-549; BT-549, breast carcinoma, read-out: Anti-cell proliferative activity IC50, BT-549) [nM] | IC50 (SK-OV-3; SK-OV-3, ovarian carcinoma, read-out: Anti-cell proliferative activity IC50, SK-OV-3) [nM] | IC50 (VERO; noncancerous monkey kidney fibroblasts) [nM]
1 | C=C1C(=O)O[C@H]2[C@H]1CC/C(C)=C/CC[C@@]1(C)O[C@@H]21 [Parthenolide, reference compound] | 2800 | 2800 | – | – | – | – | – | – | – | – | – | – | –
2 | CC[C@H](C)[C@H]1NC(=O)[C@@H](NC(=O)[C@@H](CC(C)C)NC)[C@@H](C)OC(=O)[C@H](Cc2ccc(OC)cc2)N(C)C(=O)[C@@H]2CCCN2C(=O)[C@H](CC(C)C)NC(=O)[C@@H](C)C(=O)[C@H](C(C)C)OC(=O)C[C@@H]1O [Compound 3, didemnin A] (H-[dNMeL]T[X1]LP[NMeY](Me); ester 2-C) | – | 190 | 190 | 55 | 160 | 70 | 160 | 4780 | – | – | – | – | –
3 | COc1cccc2c1C(=O)c1c(O)c3c(c(O)c1C2=O)C[C@@](O)(C(=O)CO)C[C@@H]3O[C@H]1C[C@H](N)[C@H](O)[C@H](C)O1 [Doxorubicin, reference compound] | – | – | – | – | – | – | – | – | 1100 | 1660 | 1010 | 1660 | 14000
4 | CC[C@H](C)[C@H]1NC(=O)[C@@H](NC(=O)[C@@H](CC(C)C)N(C)C(=O)[C@@H]2CCCN2C(=O)C(C)O)[C@@H](C)OC(=O)[C@H](Cc2ccc(OC)cc2)N(C)C(=O)[C@@H]2CCCN2C(=O)[C@H](CC(C)C)NC(=O)[C@@H](C)C(=O)[C@H](C(C)C)OC(=O)C[C@@H]1O (some centres unmarked) [Compound 4, didemnin B] | – | 30 | 2 | 22 | 90 | 20 | 100 | 150 | – | – | – | – | –
5 | CNC(CC(C)C)C(=O)NC1C(=O)NC(C(C)C)C(O)CC(=O)OC(C(C)C)C(=O)C(C)C(=O)NC(CC(C)C)C(=O)N2CCCC2C(=O)N(C)C(Cc2ccc(OC)c(Cl)c2)C(=O)OC1C (centres unmarked) [Compound 2, nor-N,O-diMe-o-chlorotyrosine derivative of didemnin A] (H-[NMeL]T[X2]LP[X3]; ester 2-C; configuration not given here) | 420 | 620 | – | 60 | 420 | 160 | 380 | 2080 | – | – | – | – | –
6 | CCC(C)C1NC(=O)C(NC(=O)C(CC(C)C)NC)C(C)OC(=O)C(Cc2ccc(OC)c(Cl)c2)N(C)C(=O)C2CCCN2C(=O)C(CC(C)C)NC(=O)C(C)C(=O)C(C(C)C)OC(=O)CC1O (centres unmarked) [Compound 1, N,O-diMe-o-chlorotyrosine derivative of didemnin A] | 400 | 260 | – | 120 | 260 | 160 | 260 | 4800 | – | – | – | – | –
